From ChEMBL document CHEMBL1201862, “PubChem BioAssay data set” (2004)
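Results reflect a 48-hour exposure of cells in 96-well plates to compound at five concentrations. GI50: concentration for 50% inhibition of growth.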 The source made the active and inactive calls. No stated cut-off is given here; in the data, active = GI50 up to about 1.1 µM and inactive = higher.

Experiments:
Assay in all cases: NCI-60 cell line screen, 48 h
MOLT-4 = system: MOLT-4
A498 = system: A498
HCT-15 = system: HCT-15
SK-MEL-2 = system: SK-MEL-2
NCI-H522 = system: NCI-H522
RXF 393 = system: RXF 393
UACC-257 = system: UACC-257
RPMI-8226 = system: RPMI-8226
MCF7 = system: MCF7
U-251 = system: U-251
HT-29 = system: HT-29
SK-MEL-28 = system: SK-MEL-28
HL-60 = system: HL-60
SF-295 = system: SF-295
UACC-62 = system: UACC-62
Hs-578T = system: Hs-578T
Malme-3M = system: Malme-3M
SW-620 = system: SW-620
CCRF-CEM = system: CCRF-CEM
SN12C = system: SN12C
HCT-116 = system: HCT-116
CAKI-1 = system: CAKI-1
LOX IMVI = system: LOX IMVI
NCI-H23 = system: NCI-H23
NCI/ADR-RES = system: NCI/ADR-RES
SR = system: SR
OVCAR-4 = system: OVCAR-4
ACHN = system: ACHN
K562 = system: K562
SF-539 = system: SF-539
T47D = system: T47D
OVCAR-3 = system: OVCAR-3
NCI-H460 = system: NCI-H460
786-0 = system: 786-0
DU-145 = system: DU-145
HOP-62 = system: HOP-62
EKVX = system: EKVX
SNB-19 = system: SNB-19
SNB-75 = system: SNB-75
A549 = system: A549
SF-268 = system: SF-268
OVCAR-8 = system: OVCAR-8
UO-31 = system: UO-31
COLO 205 = system: COLO 205
HOP-92 = system: HOP-92
PC-3 = system: PC-3
OVCAR-5 = system: OVCAR-5
BT-549 = system: BT-549
MDA-MB-435 = system: MDA-MB-435
HCC 2998 = system: HCC 2998
M14 = system: M14
KM12 = system: KM12
SK-MEL-5 = system: SK-MEL-5
TK-10 = system: TK-10
SK-OV-3 = system: SK-OV-3
NCI-H226 = system: NCI-H226
MDA-MB-231 = system: MDA-MB-231
IGROV-1 = system: IGROV-1

For `c1ccc(C2=C(c3ccccc3)Sc3nnc(CCCCCCCCc4nnc5n4NC(c4ccccc4)=C(c4ccccc4)S5)n3N2)cc1`, the GI50 (MOLT-4) was 17.9 µM (inactive), the GI50 (A498) was > 100 µM (inactive) and the GI50 (HCT-15) was 37.5 µM. The GI50 (SK-MEL-2) was 63 µM (inactive), the GI50 (NCI-H522) was 51.2 µM (inactive) and the GI50 (RXF 393) was 50.4 µM (inactive). The GI50 (UACC-257) was > 100 µM (inactive), the GI50 (RPMI-8226) was 27.4 µM (inactive) and the GI50 (MCF7) was 35.8 µM (inactive). For the same molecule, the GI50 (U-251) was 45.2 µM (inactive), the GI50 (HT-29) was 31.8 µM (inactive) and the GI50 (SK-MEL-28) was > 100 µM (inactive). The GI50 (HL-60) was 17.7 µM (inactive), the GI50 (SF-295) was 46.7 µM (inactive) and the GI50 (UACC-62) was 46.6 µM (inactive). The GI50 (Hs-578T) was 73.5 µM (inactive), the GI50 (Malme-3M) was > 100 µM (inactive) and the GI50 (SW-620) was > 100 µM (inactive). For the same molecule, the GI50 (CCRF-CEM) was 20.9 µM (inactive), the GI50 (SN12C) was 77.3 µM (inactive) and the GI50 (HCT-116) was 25.8 µM (inactive). The GI50 (CAKI-1) was > 100 µM (inactive), the GI50 (LOX IMVI) was 48.2 µM (inactive) and the GI50 (NCI-H23) was 49 µM (inactive). For the same molecule, the GI50 (NCI/ADR-RES) was 45.8 µM (inactive), the GI50 (SR) was 29.9 µM (inactive) and the GI50 (OVCAR-4) was 39.2 µM (inactive). The GI50 (ACHN) was 53.8 µM (inactive), the GI50 (K562) was 25 µM (inactive) and the GI50 (SF-539) was > 100 µM (inactive). The GI50 (T47D) was 24.7 µM (inactive), the GI50 (OVCAR-3) was 39.8 µM (inactive) and the GI50 (NCI-H460) was 48.9 µM (inactive). For the same molecule, the GI50 (786-0) was 61 µM (inactive), the GI50 (DU-145) was > 100 µM (inactive) and the GI50 (HOP-62) was > 100 µM (inactive). The GI50 (EKVX) was 35.5 µM (inactive), the GI50 (SNB-19) was 54.6 µM (inactive) and the GI50 (SNB-75) was 63.2 µM (inactive). The GI50 (A549) was 34.7 µM (inactive), the GI50 (SF-268) was 83 µM (inactive) and the GI50 (OVCAR-8) was 48.6 µM (inactive). The GI50 (UO-31) was 27.4 µM (inactive), the GI50 (COLO 205) was 45.3 µM (inactive) and the GI50 (HOP-92) was 54.8 µM (inactive). The GI50 (PC-3) was 41.4 µM (inactive), the GI50 (OVCAR-5) was > 100 µM (inactive) and the GI50 (BT-549) was 46.6 µM (inactive). For the same molecule, the GI50 (MDA-MB-435) was 34.9 µM (inactive), the GI50 (HCC 2998) was 85.5 µM (inactive) and the GI50 (M14) was 29.8 µM (inactive). The GI50 (KM12) was 44.1 µM (inactive), the GI50 (SK-MEL-5) was 33.6 µM (inactive) and the GI50 (TK-10) was 44.2 µM (inactive). The GI50 (SK-OV-3) was > 100 µM (inactive), the GI50 (NCI-H226) was > 100 µM (inactive) and the GI50 (MDA-MB-231) was 95.9 µM (inactive).
`CC(C)CCCC(C)[C@H]1CC[C@H]2[C@@H]3CC[C@H]4C[C@@H](CCC=C(c5cc(Cl)c(O)c(C(=O)O)c5)c5cc(Cl)c(O)c(C(=O)O)c5)CC[C@]4(C)[C@H]3CC[C@]12C` (stereo partly drawn) was tested, and the GI50 (MOLT-4) was > 50 µM (inactive), the GI50 (A498) was > 50 µM (inactive) and the GI50 (HCT-15) was 36.1 µM. For the same molecule, the GI50 (SK-MEL-2) was > 50 µM (inactive), the GI50 (NCI-H522) was > 50 µM (inactive) and the GI50 (RXF 393) was > 50 µM (inactive). The GI50 (RPMI-8226) was > 50 µM (inactive), the GI50 (MCF7) was > 50 µM (inactive) and the GI50 (U-251) was > 50 µM (inactive). For the same molecule, the GI50 (HT-29) was > 50 µM (inactive), the GI50 (SK-MEL-28) was > 50 µM (inactive) and the GI50 (HL-60) was > 50 µM (inactive). For the same molecule, the GI50 (SF-295) was > 50 µM (inactive), the GI50 (UACC-62) was > 50 µM (inactive) and the GI50 (Hs-578T) was > 50 µM (inactive). The GI50 (Malme-3M) was > 50 µM (inactive), the GI50 (SW-620) was > 50 µM (inactive) and the GI50 (CCRF-CEM) was > 50 µM (inactive). For the same molecule, the GI50 (SN12C) was > 50 µM (inactive), the GI50 (HCT-116) was > 50 µM (inactive) and the GI50 (CAKI-1) was > 50 µM (inactive). For the same molecule, the GI50 (LOX IMVI) was > 50 µM (inactive), the GI50 (NCI-H23) was > 50 µM (inactive) and the GI50 (NCI/ADR-RES) was > 50 µM (inactive). For the same molecule, the GI50 (OVCAR-4) was > 50 µM (inactive), the GI50 (ACHN) was > 50 µM (inactive) and the GI50 (K562) was 31.1 µM (inactive). The GI50 (SF-539) was > 50 µM (inactive), the GI50 (IGROV-1) was > 50 µM (inactive) and the GI50 (T47D) was > 50 µM (inactive). The GI50 (OVCAR-3) was > 50 µM (inactive), the GI50 (NCI-H460) was 25.4 µM (inactive) and the GI50 (786-0) was 32.2 µM (inactive). The GI50 (DU-145) was > 50 µM (inactive), the GI50 (HOP-62) was > 50 µM (inactive) and the GI50 (EKVX) was > 50 µM (inactive). The GI50 (SNB-19) was > 50 µM (inactive), the GI50 (SNB-75) was > 50 µM (inactive) and the GI50 (A549) was > 50 µM (inactive). The GI50 (SF-268) was > 50 µM (inactive), the GI50 (OVCAR-8) was > 50 µM (inactive) and the GI50 (UO-31) was 6.03 µM (inactive). For the same molecule, the GI50 (COLO 205) was > 50 µM (inactive), the GI50 (HOP-92) was > 50 µM (inactive) and the GI50 (PC-3) was > 50 µM (inactive). For the same molecule, the GI50 (OVCAR-5) was > 50 µM (inactive), the GI50 (BT-549) was > 50 µM (inactive) and the GI50 (MDA-MB-435) was > 50 µM (inactive). For the same molecule, the GI50 (HCC 2998) was > 50 µM (inactive), the GI50 (M14) was > 50 µM (inactive) and the GI50 (KM12) was > 50 µM (inactive). For the same molecule, the GI50 (SK-MEL-5) was 28.8 µM (inactive), the GI50 (TK-10) was > 50 µM (inactive) and the GI50 (SK-OV-3) was > 50 µM (inactive). For the same molecule, the GI50 (NCI-H226) was > 50 µM (inactive) and the GI50 (MDA-MB-231) was > 50 µM (inactive).
